Measured values reported in ChEMBL document CHEMBL4145553, “Design, synthesis, and biological evaluation of novel amide and hydrazide based thioether analogs targeting Histone deacteylase (HDAC) enzymes” (Eur J Med Chem, 2018).
The source made the active and inactive calls. No cut-off for these calls is given here.

Key:
Histone deacetylase 3 = Histone deacetylase 3 (Homo sapiens, UniProt O15379); test: Inhibition of HDAC3 (unknown origin) by ELISA
SK-MEL-28 [1] = test: Growth inhibition of human SK-MEL-28 cells assessed as cell growth at 10^-6 M incubated for 48 hrs by sulforhodamine B assay relative to control; type: functional; conditions: SK-MEL-28, 48 h, read-out: Activity
OVCAR-5 = test: Growth inhibition of human OVCAR5 cells assessed as cell growth at 10^-4 M incubated for 48 hrs by sulforhodamine B assay relative to control; type: functional; conditions: OVCAR-5, 48 h, read-out: Activity
SK-MEL-2 = test: Growth inhibition of human SK-MEL-2 cells assessed as cell growth at 10^-4 M incubated for 48 hrs by sulforhodamine B assay relative to control; type: functional; conditions: SK-MEL-2, 48 h, read-out: Activity
MDA-MB-231 = test: Growth inhibition of human MDA-MB-231 cells assessed as cell growth at 10^-7 M incubated for 48 hrs by sulforhodamine B assay relative to control; type: functional; conditions: MDA-MB-231, 48 h, read-out: Activity
M14 [2] = test: Growth inhibition of human M14 cells assessed as cell growth at 10^-6 M incubated for 48 hrs by sulforhodamine B assay relative to control; type: functional; conditions: M14, 48 h, read-out: Activity
SF-295 = test: Growth inhibition of human SF295 cells assessed as cell growth at 10^-7 M incubated for 48 hrs by sulforhodamine B assay relative to control; type: functional; conditions: SF-295, 48 h, read-out: Activity
CAKI-1 = test: Growth inhibition of human Caki1 cells incubated for 48 hrs by sulforhodamine B assay; type: functional; conditions: CAKI-1, 48 h
BT-549 = test: Growth inhibition of human BT549 cells assessed as cell growth at 10^-4 M incubated for 48 hrs by sulforhodamine B assay relative to control; type: functional; conditions: BT-549, 48 h, read-out: Activity
UO-31 = test: Growth inhibition of human UO31 cells assessed as cell growth at 10^-5 M incubated for 48 hrs by sulforhodamine B assay relative to control; type: functional; conditions: UO-31, 48 h, read-out: Activity
Malme-3M = test: Growth inhibition of human MALME-3M cells assessed as cell growth at 10^-5 M incubated for 48 hrs by sulforhodamine B assay relative to control; type: functional; conditions: read-out: Activity
RXF 393 = test: Growth inhibition of human RXF393 cells assessed as cell growth at 10^-7 M incubated for 48 hrs by sulforhodamine B assay relative to control; type: functional; conditions: RXF 393, 48 h, read-out: Activity
IGROV-1 = test: Growth inhibition of human IGROV1 cells assessed as cell growth at 10^-6 M incubated for 48 hrs by sulforhodamine B assay relative to control; type: functional; conditions: IGROV-1, 48 h, read-out: Activity
OVCAR-4 = test: Growth inhibition of human OVCAR4 cells assessed as cell growth at 10^-5 M incubated for 48 hrs by sulforhodamine B assay relative to control; type: functional; conditions: OVCAR-4, 48 h, read-out: Activity
MDA-MB-435 = test: Downregulation of HDAC2 mRNA expression in human MDA-MB-435 cells by qRT-PCR method relative to control; type: functional
MCF7 = test: Growth inhibition of human MCF7 cells incubated for 48 hrs by sulforhodamine B assay; type: functional; conditions: MCF7, 48 h
HL-60 [3] = test: Downregulation of HDAC3 mRNA expression in human HL60 cells by qRT-PCR method; type: functional, cell-based
OVCAR-3 = test: Growth inhibition of human OVCAR3 cells assessed as cell growth at 10^-6 M incubated for 48 hrs by sulforhodamine B assay relative to control; type: functional; conditions: OVCAR-3, 48 h, read-out: Activity
HL-60(TB) = test: Growth inhibition of human HL-60(TB) cells assessed as cell growth at 10^-7 M incubated for 48 hrs by sulforhodamine B assay relative to control; type: functional; conditions: HL-60, 48 h, read-out: Activity
NCI-H23 = test: Growth inhibition of human NCI-H23 cells incubated for 48 hrs by sulforhodamine B assay; type: functional; conditions: NCI-H23, 48 h
M14 [4] = test: Growth inhibition of human M14 cells assessed as cell growth at 10^-7 M incubated for 48 hrs by sulforhodamine B assay relative to control; type: functional; conditions: M14, 48 h, read-out: Activity
SK-MEL-28 [5] = test: Growth inhibition of human SK-MEL-28 cells assessed as cell growth at 10^-4 M incubated for 48 hrs by sulforhodamine B assay relative to control; type: functional; conditions: SK-MEL-28, 48 h, read-out: Activity
RPMI-8226 [6] = test: Growth inhibition of human RPMI8226 cells incubated for 48 hrs by sulforhodamine B assay; type: functional; conditions: RPMI-8226, 48 h
HL-60 [7] = test: Induction of apoptosis in human HL60 cells assessed as necrotic cells by propidium iodide/Annexin V staining based flow cytometry (reference value: 0.34%); type: functional
HCC 2998 = test: Growth inhibition of human HCC2998 cells assessed as cell growth at 10^-6 M incubated for 48 hrs by sulforhodamine B assay relative to control; type: functional; conditions: HCC 2998, 48 h, read-out: Activity
NCI-H522 = test: Growth inhibition of human NCI-H522 cells assessed as cell growth at 10^-7 M incubated for 48 hrs by sulforhodamine B assay relative to control; type: functional; conditions: NCI-H522, 48 h, read-out: Activity
HCT-15 = test: Growth inhibition of human HCT15 cells assessed as cell growth at 10^-8 M incubated for 48 hrs by sulforhodamine B assay relative to control; type: functional; conditions: HCT-15, 48 h, read-out: Activity
SNB-75 = test: Growth inhibition of human SNB75 cells assessed as cell growth at 10^-7 M incubated for 48 hrs by sulforhodamine B assay relative to control; type: functional; conditions: SNB-75, 48 h, read-out: Activity
MOLT-4 = test: Growth inhibition of human MOLT4 cells assessed as cell growth at 10^-7 M incubated for 48 hrs by sulforhodamine B assay relative to control; type: functional; conditions: MOLT-4, 48 h, read-out: Activity
RPMI-8226 [8] = test: Growth inhibition of human RPMI8226 cells assessed as cell growth at 10^-4 M incubated for 48 hrs by sulforhodamine B assay relative to control; type: functional; conditions: RPMI-8226, 48 h, read-out: Activity
SR = test: Growth inhibition of human SR cells assessed as cell growth at 10^-6 M incubated for 48 hrs by sulforhodamine B assay relative to control; type: functional; conditions: read-out: Activity
[9] = read-out: LC50 (the source's name)
[10] = read-out: pLC50 (the source's name) (converted)

Chain of Histone deacetylase 3 (O15379 whole entry): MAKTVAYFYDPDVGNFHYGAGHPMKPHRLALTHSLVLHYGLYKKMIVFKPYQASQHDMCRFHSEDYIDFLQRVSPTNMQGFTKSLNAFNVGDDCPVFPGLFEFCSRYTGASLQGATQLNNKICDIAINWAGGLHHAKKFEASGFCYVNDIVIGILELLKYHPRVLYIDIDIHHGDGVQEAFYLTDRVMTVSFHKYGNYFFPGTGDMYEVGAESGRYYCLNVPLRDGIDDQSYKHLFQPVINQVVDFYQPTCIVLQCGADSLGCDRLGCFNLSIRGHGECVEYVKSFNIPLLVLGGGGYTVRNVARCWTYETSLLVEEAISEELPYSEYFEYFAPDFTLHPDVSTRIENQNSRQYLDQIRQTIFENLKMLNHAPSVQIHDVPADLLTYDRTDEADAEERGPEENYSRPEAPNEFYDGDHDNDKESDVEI

CCS/C(Nc1ccccc1)=C(\C#N)C(=O)N/N=C\c1ccc(Cl)cc1Cl
IC50 (Histone deacetylase 3): 0.032 µM
growth at 1 µM (SK-MEL-28 [1]): 79%
growth at 100 µM (OVCAR-5): 38%
growth at 100 µM (SK-MEL-2): -9%
growth at 0.1 µM (MDA-MB-231): 97%
growth at 1 µM (M14 [2]): 72%
growth at 0.1 µM (SF-295): 88%
GI50 (CAKI-1; read-out: GI50): 2.39 µM
CC50 (CAKI-1; [9]): > 100 µM
TGI (CAKI-1; read-out: TGI): > 100 µM
GI50 (CAKI-1; read-out: pGI50 (converted)): 2.4 µM
CC50 (CAKI-1; [10]): > 100 µM
TGI (CAKI-1; read-out: pTGI): > 100 µM
growth at 100 µM (BT-549): 7%
growth at 10 µM (UO-31): 43%
growth at 10 µM (Malme-3M): 49%
growth at 0.1 µM (RXF 393): 87%
growth at 1 µM (IGROV-1): 84%
growth at 10 µM (OVCAR-4): 42%
fold change (FC) (MDA-MB-435): <=10
GI50 (MCF7; read-out: GI50): 2.99 µM
CC50 (MCF7; [9]): > 100 µM
TGI (MCF7; read-out: TGI): > 100 µM
GI50 (MCF7; read-out: pGI50 (converted)): 3.02 µM
CC50 (MCF7; [10]): > 100 µM
TGI (MCF7; read-out: pTGI): > 100 µM
Activity (HL-60 [3]): Active
growth at 1 µM (OVCAR-3): 90%
growth at 0.1 µM (HL-60(TB)): 91%
GI50 (NCI-H23; read-out: GI50): 6.47 µM
LC50 (NCI-H23; read-out: LC50): > 100 µM
TGI (NCI-H23; read-out: TGI): > 100 µM
GI50 (NCI-H23; read-out: pGI50 (converted)): 6.46 µM
LC50 (NCI-H23; read-out: pLC50 (converted)): > 100 µM
TGI (NCI-H23; read-out: pTGI): > 100 µM
growth at 0.1 µM (M14 [4]): 93%
growth at 100 µM (SK-MEL-28 [5]): 45%
GI50 (RPMI-8226 [6]; read-out: GI50): 3.68 µM
CC50 (RPMI-8226 [6]; [9]): > 100 µM
TGI (RPMI-8226 [6]; read-out: TGI): > 100 µM
GI50 (RPMI-8226 [6]; read-out: pGI50 (converted)): 3.72 µM
CC50 (RPMI-8226 [6]; [10]): > 100 µM
TGI (RPMI-8226 [6]; read-out: pTGI): > 100 µM
Activity (HL-60 [7]): 2.03%
growth at 1 µM (HCC 2998): 99%
growth at 0.1 µM (NCI-H522): 82%
growth at 0.01 µM (HCT-15): 99%
growth at 0.1 µM (SNB-75): 78%
growth at 0.1 µM (MOLT-4): 82%
growth at 100 µM (RPMI-8226 [8]): 6%
growth at 1 µM (SR): 76%

CCS/C(Nc1ccccc1)=C(\C#N)C(=O)Nc1ccc(OC)cc1
IC50 (Histone deacetylase 3): 0.064 µM
growth at 1 µM (SK-MEL-28 [1]): 85%
growth at 100 µM (OVCAR-5): 23%
growth at 100 µM (SK-MEL-2): 14%
growth at 0.1 µM (MDA-MB-231): 94%
growth at 1 µM (M14 [2]): 72%
growth at 0.1 µM (SF-295): 90%
GI50 (CAKI-1; read-out: GI50): 3.39 µM
CC50 (CAKI-1; [9]): > 100 µM
TGI (CAKI-1; read-out: TGI): > 100 µM
GI50 (CAKI-1; read-out: pGI50 (converted)): 3.39 µM
CC50 (CAKI-1; [10]): > 100 µM
TGI (CAKI-1; read-out: pTGI): > 100 µM
growth at 100 µM (BT-549): 12%
growth at 10 µM (UO-31): 37%
growth at 10 µM (Malme-3M): 61%
growth at 0.1 µM (RXF 393): 100%
growth at 1 µM (IGROV-1): 79%
growth at 10 µM (OVCAR-4): 45%
fold change (FC) (MDA-MB-435): <=10
GI50 (MCF7; read-out: GI50): 2.71 µM
CC50 (MCF7; [9]): > 100 µM
TGI (MCF7; read-out: TGI): > 100 µM
GI50 (MCF7; read-out: pGI50 (converted)): 2.69 µM
CC50 (MCF7; [10]): > 100 µM
TGI (MCF7; read-out: pTGI): > 100 µM
Activity (HL-60 [3]): Active
growth at 1 µM (OVCAR-3): 90%
growth at 0.1 µM (HL-60(TB)): 89%
GI50 (NCI-H23; read-out: GI50): 4.9 µM
LC50 (NCI-H23; read-out: LC50): > 100 µM
TGI (NCI-H23; read-out: TGI): > 100 µM
GI50 (NCI-H23; read-out: pGI50 (converted)): 4.9 µM
LC50 (NCI-H23; read-out: pLC50 (converted)): > 100 µM
TGI (NCI-H23; read-out: pTGI): > 100 µM
growth at 0.1 µM (M14 [4]): 93%
growth at 100 µM (SK-MEL-28 [5]): 37%
GI50 (RPMI-8226 [6]; read-out: GI50): 2.52 µM
CC50 (RPMI-8226 [6]; [9]): > 100 µM
TGI (RPMI-8226 [6]; read-out: TGI): > 100 µM
GI50 (RPMI-8226 [6]; read-out: pGI50 (converted)): 2.51 µM
CC50 (RPMI-8226 [6]; [10]): > 100 µM
TGI (RPMI-8226 [6]; read-out: pTGI): > 100 µM
Activity (HL-60 [7]): 1.98%
growth at 1 µM (HCC 2998): 91%
growth at 0.1 µM (NCI-H522): 94%
growth at 0.01 µM (HCT-15): 98%
growth at 0.1 µM (SNB-75): 84%
growth at 0.1 µM (MOLT-4): 90%
growth at 100 µM (RPMI-8226 [8]): 5%
growth at 1 µM (SR): 57%
